From ChEMBL document CHEMBL1201862, “PubChem BioAssay data set” (2004)
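Five compound concentrations were applied to cells in 96-well plates for 48 hours; endpoints were derived by simple linear interpolation of the resulting dose-response curve. At the GI50, growth is halved.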 Active and inactive are the calls of the source. Rule as the data show it: active = GI50 up to about 1.1 µM and inactive = higher.

Legend:
Assay in all cases: DTP human tumour cell line panel, 48 h
[1] = tested on: T47D
[2] = tested on: EKVX
[3] = tested on: U-251
[4] = tested on: UO-31
[5] = tested on: A498
[6] = tested on: SR
[7] = tested on: SF-268
[8] = tested on: PC-3
[9] = tested on: MOLT-4
[10] = tested on: RXF 393
[11] = tested on: NCI-H522
[12] = tested on: 786-0
[13] = tested on: NCI/ADR-RES
[14] = tested on: Hs-578T
[15] = tested on: UACC-257
[16] = tested on: SNB-19
[17] = tested on: NCI-H460
[18] = tested on: SK-MEL-2
[19] = tested on: MCF7
[20] = tested on: SK-OV-3

Measured: GI50

CC(CO)(CO)Nc1ncnc2ccccc12
inactive: [1] > 100 µM | [2] 66.8 µM | [3] > 100 µM | [4] > 100 µM | [5] > 100 µM | [6] 66.1 µM | [7] > 100 µM | [8] > 100 µM | [9] > 100 µM | [10] > 100 µM | [11] > 100 µM | [12] > 100 µM | [13] > 100 µM | [14] > 100 µM | [15] > 100 µM | [16] > 100 µM | [17] > 100 µM | [18] > 100 µM

COc1nc2ccc(COc3ccc(C(=O)NC(CCC(=O)O)C(=O)O)cc3)cc2nc1OC (configuration not stated)
inactive: [1] > 10 µM | [2] > 10 µM | [3] > 10 µM | [4] > 10 µM | [6] > 10 µM | [7] > 10 µM | [19] > 10 µM | [8] > 10 µM | [9] > 10 µM | [10] > 10 µM | [11] > 10 µM | [20] > 10 µM | [14] > 10 µM | [15] > 10 µM | [16] > 10 µM | [17] > 10 µM | [18] > 10 µM

COc1ccc2c(c1)CC[C@@H]1[C@@H]2CC[C@]2(C)[C@@H](O)/C(=C/c3ccncc3)C[C@@H]12
inactive: [1] 5.14 µM | [2] 18.5 µM | [3] 12.4 µM | [4] 14 µM | [5] 17.5 µM | [7] 12.6 µM | [19] 16.6 µM | [8] 10.1 µM | [9] 4.65 µM | [10] 4.25 µM | [11] 14 µM | [20] 21.2 µM | [12] 14.2 µM | [13] 15 µM | [14] 12.8 µM | [15] 16.6 µM | [16] 18.8 µM | [17] 14.2 µM | [18] 16.3 µM

N#Cc1c(NC(=S)NC(=O)c2ccccc2)nc2c(c1-c1ccccc1)CCC2
inactive: [1] 25.5 µM | [2] 24.5 µM | [3] > 100 µM | [4] 8.67 µM | [6] > 100 µM | [7] > 100 µM | [19] > 10 µM | [8] > 100 µM | [9] 58.1 µM | [20] > 100 µM | [13] > 100 µM | [14] 39.8 µM | [15] > 100 µM | [16] > 100 µM | [17] > 100 µM

c1cc(CSP234N5CCN2CCN3CCN4CC5)ccc1CSP123N4CCN1CCN2CCN3CC4
inactive: [1] > 100 µM | [2] > 100 µM | [3] 68.5 µM | [4] 99.8 µM | [7] > 100 µM | [19] > 100 µM | [8] > 100 µM | [9] 91.4 µM | [11] 52 µM | [12] > 100 µM | [13] > 100 µM | [14] > 100 µM | [15] > 100 µM | [16] > 100 µM | [17] > 100 µM | [18] > 100 µM

Cc1cc(C)c2c(O)cc(-c3ccc(F)cc3)nc2n1
inactive: [1] 37.8 µM | [2] 48.5 µM | [4] 23.9 µM | [5] 27.4 µM | [6] 23.3 µM | [7] 42.1 µM | [19] 30.7 µM | [9] 29.9 µM | [11] 30.3 µM | [20] 87.9 µM | [13] 47.6 µM | [14] 69 µM | [15] 33.1 µM | [16] > 100 µM | [18] 38.7 µM

O=C(NN=C1CCCCC1)NN=C1CCCCC1
inactive: [1] > 100 µM | [3] > 100 µM | [4] > 100 µM | [19] > 100 µM | [8] > 100 µM | [9] > 100 µM | [10] > 100 µM | [20] > 100 µM | [13] > 100 µM | [14] > 100 µM | [15] > 100 µM | [16] > 100 µM | [17] > 100 µM

O=P1(c2ccccc2)C2=CCC=CC2C(c2ccccc2)N1Cc1ccccc1 (configuration not stated)
inactive: [1] 16.3 µM | [2] 14 µM | [3] 14.3 µM | [4] 12.4 µM | [6] 24.2 µM | [7] 14.7 µM | [19] 11.2 µM | [8] 13.4 µM | [9] 16.1 µM | [11] 11.4 µM | [20] 17.1 µM | [12] 15.5 µM | [13] 14.5 µM | [14] 19 µM | [15] 20.1 µM | [16] 22.4 µM | [17] 13 µM | [18] 15.5 µM

CCOC(=O)C1(C/C=C\CBr)CCCCCCC1=O (configuration not stated)
inactive: [1] > 100 µM | [2] > 100 µM | [3] > 100 µM | [4] > 100 µM | [5] > 100 µM | [7] > 100 µM | [19] > 100 µM | [8] > 100 µM | [9] > 100 µM | [10] > 100 µM | [11] > 100 µM | [20] > 100 µM | [12] > 100 µM | [13] > 100 µM | [14] > 100 µM | [15] > 100 µM | [16] > 100 µM | [18] > 100 µM

C=CCOCn1cc(F)c(=O)[nH]c1=O
inactive: [1] > 100 µM | [2] > 100 µM | [4] > 100 µM | [5] > 100 µM | [6] > 100 µM | [7] > 100 µM | [19] > 100 µM | [8] > 100 µM | [9] > 100 µM | [11] > 100 µM | [20] > 100 µM | [12] > 100 µM | [14] > 100 µM | [15] > 100 µM | [16] > 100 µM | [17] > 100 µM

O=C(Sc1c(-c2ccccc2)c(=O)n(-c2ccccc2)c(=S)n1-c1ccccc1)c1ccccc1
inactive: [1] 71.1 µM | [2] > 100 µM | [3] 79.1 µM | [4] 41.6 µM | [6] 31.3 µM | [7] > 100 µM | [19] 51.6 µM | [8] > 100 µM | [9] 19.5 µM | [11] 36.1 µM | [20] > 100 µM | [12] > 100 µM | [13] 75 µM | [14] 33.7 µM | [15] > 100 µM | [16] > 100 µM | [17] > 100 µM | [18] > 100 µM

CCC(c1c[nH]c2ccc(Br)cc12)c1c[nH]c2ccc(Br)cc12
inactive: [1] 2.3 µM | [2] 5.14 µM | [3] 3.72 µM | [4] 6.97 µM | [5] 3.79 µM | [7] 5.97 µM | [19] 3.98 µM | [8] 4.81 µM | [9] 1.94 µM | [10] 2.32 µM | [11] 4.44 µM | [20] 11.9 µM | [12] 3.56 µM | [13] 3.08 µM | [14] 5.82 µM | [15] 11.6 µM | [16] 8.57 µM | [17] 2.63 µM | [18] 10.6 µM
